Measurements published in paper PMC9394307, “Discovery of Putative Dual Inhibitor of Tubulin and EGFR by Phenotypic Approach on LASSBio-1586 Homologs” (Pharmaceuticals, 2022).

Tests used:
SF-295 = system: SF-295; set-up: method as in PMID 24614859, PMID 30006065, PMID 25564377; conditions: cited from earlier work
HCT-116 = system: HCT-116; set-up: method as in PMID 24614859, PMID 30006065, PMID 25564377; conditions: cited from earlier work
H1975 cells = assay: Cell cycle analysis by flow cytometry (Guava Muse Cell Cycle Kit); assay type: cell-based, human; conditions: H1975, 48 h of treatment; CA-4 0.04 µM, LASSBio-1586 2.0 µM, LASSBio-1735 0.08 µM, LASSBio-2070 3.0 µM, LASSBio-2074 1.5 µM; vs DMSO 0.1%
Description: Changes in the cell cycle are important aspect in tumorigenesis. Therefore, the identification of the steps related to inhibition of cell multiplication is an important process during the discovery of new antitumoral drug candidates. […] Flow cytometry was used for cell cycle analysis to estimate the percentages of a cell population in the different phases of the cell cycle. The analysis was performed using the lung cancer cell line H1975 treated with CA-4 (1, 0.04 µM), LASSBio-1586 (2, 2.0 µM), LASSBio-1735 (3, 0.08 µM), LASSBio-2070 (10, 3.0 µM) and LASSBio-2074 (11, 1.5 µM).
(§1) Flow cytometry was applied to help elucidate the mechanism of action of the studied compounds, both to verify the cell cycle phase and to verify the action on EGFR protein kinase.
The anti-tubulin effect was evaluated by seeding H1975, H292 and PC-9 into 6-well plates at a density of 2 × 10^5 per well. […] Cells were harvested and stained according to the protocols of The Guava Muse® Cell Cycle Kit (MCH100106) to quantitatively measure the percentage of cells in the G2/M phases of the cell cycle and the EGFR-RTK Activation Dual Detection Kit (MCH200102) (Luminex®) to measure EGFR phosphorylation in relation to total EGFR expression in the cell population, according to the manufacturer’s instructions for use in test kits using a Guava Muse® Cell Analyzer (Luminex®). Each experiment was performed at least three times independently.

β-tubulin = system: β-tubulin; set-up: method as in PMID 24614859, PMID 30006065, PMID 25564377; conditions: cited from earlier work
HL-60 = system: HL-60; set-up: method as in PMID 24614859; conditions: cited from earlier work
[1] = system: EGFR in PC-9 cell line (EGFR^L858R); assay: Guava Muse EGFR-RTK Activation Dual Detection Kit, flow cytometry; assay type: cell-based, human; conditions: PC-9, LASSBio-2070 0.03 µM
Description: as §1
The anti-tubulin effect was evaluated by seeding H1975, H292 and PC-9 into 6-well plates at a density of 2 × 10^5 per well. The cells were treated with the selected compounds for 72 h. Cells were harvested and stained according to the protocols of The Guava Muse® Cell Cycle Kit (MCH100106) to quantitatively measure the percentage of cells in the G2/M phases of the cell cycle and the EGFR-RTK Activation Dual Detection Kit (MCH200102) (Luminex®) to measure EGFR phosphorylation in relation to total EGFR expression in the cell population, according to the manufacturer’s instructions for use in test kits using a Guava Muse® Cell Analyzer (Luminex®). Each experiment was performed at least three times independently.

Compound | proliferation of SF-295 in the Hollow Fiber Assay (SF-295) | proliferation of HCT-116 in the Hollow Fiber Assay (HCT-116) | cell cycle distribution (G0/G1, S, G2/M) (H1975 cells) | ability to inhibit β-tubulin (β-tubulin) | cytotoxic potency against HL-60 compared with LASSBio-1586 (2) (HL-60) | modulation of EGFR activity in a phenotypic model [1]
COc1cc(C(=O)N/N=C/c2ccccc2)cc(OC)c1OC [LASSBio-1586 (2), (E)-N’-benzylidene-3,4,5-trimetoxybenzohydrazide] | able to decrease proliferation | able to decrease proliferation | increased cells in phase G2/M | confirmed | – | –
COc1cc(C(=O)N(C)/N=C/c2ccccc2)cc(OC)c1OC [LASSBio-1735 (3), (E)-N’-benzylidene-3,4,5-trimethoxy-N-methylbenzohydrazide] | – | – | increased cells in phase G2/M | – | cytotoxic potency superior to LASSBio-1586 (2) | –
COc1cc(C(=O)N(Cc2ccccc2)/N=C/c2ccccc2)cc(OC)c1OC [LASSBio-2070 (10), (E)-N-benzyl-N’-benzylidene-3,4,5-trimethoxybenzohydrazide] | – | – | increased cells in phase G2/M | – | – | inhibiting the phosphorylation of EGFR
CCOC(=O)CN(/N=C/c1ccccc1)C(=O)c1cc(OC)c(OC)c(OC)c1 [LASSBio-2074 (11), Ethyl (E)-N-(benzylideneamino)-N-(3,4,5-trimethoxybenzoyl)glycinate] | – | – | increased cells in phase G2/M | – | – | –
